Assay results published in patent publication US20250262194A1, “PHARMACEUTICAL FOR TREATING OR PREVENTING CANCER” (CHUGAI SEIYAKU KABUSHIKI KAISHA, priority 2022, published 2025).
Counter-ions that a name gives are not always drawn.

Assays:
[1] = test system: KRAS mutation-positive mouse colon cancer cell line CT26; test: In vivo antitumor activity, CT26-transplanted models (Example 6); set-up: species or system BALB/C mice; conditions: sodium salt of compound 1 1 mg/kg orally once a day and/or anti-PD-L1 antibody 10 mg/kg intravenous twice a week, 21 days
Method: (§1) Use in combination of the sodium salt of the compound 1 and an anti-PD-L1 antibody was evaluated for its in vivo antitumor activity using BALB/C mice in which a KRAS mutation-positive mouse colon cancer cell line CT26 (Crown Bioscience) was transplanted and C57BL/6J mice in which a KRAS mutation-positive mouse lung cancer tissue slice mLU6054 (Crown Bioscience) was transplanted. The CT26 cells and the mLU6054 tissue slice were subcutaneously transplanted at 5×10^5 and a diameter of […], respectively, per mouse to the mice. The mice were grouped (n=8) when a tumor volume reached approximately 60 to 85 mm^3.
(§2) The CT26- or mLU6054-transplanted models received the single-agent administration or combined administration of the sodium salt of the compound 1 and the anti-PD-L1 antibody. The sodium salt of the compound 1 was dissolved in solvent E for administration. The anti-PD-L 1 antibody was diluted with PBS for administration.
(§3) Administration to the CT26- or mLU6054-transplanted models was performed as described below. The sodium salt of the compound 1 and PBS were administered at 1 mg/kg and 10 ml/kg, respectively, to the single-agent administration group of the sodium salt of the compound 1. […]
(§4) The tumor volumes of the mice were calculated according to the expression (4). […]

[2] = test system: KRAS mutation-positive human cancer cell line NCI-H1373; test: In vivo antitumor activity, NCI-H1373-transplanted models (Example 5); set-up: species or system nude mice; conditions: sodium salt of compound 1 0.25 mg/kg orally once a day and/or TNO155 10 mg/kg orally twice a day, 30 days
Method: (§5) Use in combination of the sodium salt of the compound 1 and TNO155 was evaluated for its in vivo antitumor activity using nude mice in which any of KRAS mutation-positive human cancer cell lines NCI-H1373, NCI-H358 and NCI-H441 (all, ATCC) was transplanted. The NCI-H1373 cells, the NCI-H358 cells, and the NCI-H441 cells were subcutaneously transplanted at 5×10^6, 1×10^7, and 5×10^6, respectively, per mouse to the mice. The mice were grouped (n=5) when a tumor volume reached approximately 150 to 300 mm^3.
(§6) The NCI-H1373-, NCI-H358- or NCI-H441-transplanted models received the single-agent administration or combined administration of the sodium salt of the compound 1 and TNO155. The sodium salt of the compound 1 was dissolved in solvent A for administration. TNO155 was diluted with 0.5% Tween 80 and 0.5% methyl cellulose prepared with injectable distilled water (solvent D) for administration.
(§7) Administration to the NCI-H1373-transplanted models was performed as described below. The sodium salt of the compound 1 and the solvent D were administered at 0.25 mg/kg and 10 ml/kg, respectively, to the single-agent administration group of the sodium salt of the compound 1. […]
as §4

[3] = test system: KRAS-G12C mutation-positive human cancer cell line MIA PaCa-2; test: In vivo antitumor activity, MIA PaCa-2 xenograft mice (Example 3); set-up: species or system nude mice; conditions: sodium salt of compound 1 0.25 mg/kg and/or sotorasib 10 mg/kg, orally once a day for 14 days
Method: (§8) This evaluation employed xenograft mice in which a KRAS-G12C mutation-positive human cancer cell line MIA PaCa-2 or NCI-H2122 (both, ATCC) was transplanted. The xenograft mice were prepared by subcutaneously transplanting 5×10^6 human cells per mouse to nude mice. After cell transplantation, the mice were grouped (n=8) when a tumor volume reached 200 to 340 mm^3.
The sodium salt of the compound 1 was dissolved in 10% DMSO/10% Cremophor EL/15% HP-β-CD (2-hydroxypropyl-β-cyclodextrin)/15% polyethylene glycol-400/50% injectable distilled water (solvent A) for administration. […] The sodium salt of the compound 1 and the solvent B were administered at 0.25 mg/kg and 20 ml/kg, respectively, to the single-agent administration group of the sodium salt of the compound 1. […] The solvent A and the solvent B were administered at 20 ml/kg and 20 ml/kg, respectively, to a control group. […] After the completion of the administration period, an observation period of 22 days was established.
The tumor volumes of the mice were calculated according to the expression (4) given below.
The body weights of the mice were measured.

[4] = test system: KRAS mutation-positive human cancer cell line NCI-H358; test: In vivo antitumor activity, NCI-H358-transplanted models (Example 5); set-up: species or system nude mice; conditions: sodium salt of compound 1 0.25 mg/kg orally once a day and/or TNO155 5 mg/kg orally twice a day, 21 days
Method: as §5, §6
as §7, with “NCI-H358-transplanted” for “NCI-H1373-transplanted”, “1. TNO155 and the solvent A were administered at 5 mg/kg and 10 ml/kg, respectively, to the single-agent administration group of TNO155.” for “1.”
as §4

[5] = test system: KRAS mutation-positive mouse lung cancer tissue slice mLU6054; test: In vivo antitumor activity, mLU6054-transplanted models (Example 6); set-up: species or system C57BL/6J mice; conditions: sodium salt of compound 1 1 mg/kg orally once a day and/or anti-PD-L1 antibody 10 mg/kg intravenous twice a week, 21 days
Method: as §1, §2, §3, §4

[6] = test system: KRAS-G12C mutation-positive human cancer cell line NCI-H2122; test: In vivo antitumor activity, NCI-H2122 xenograft mice (Example 3); set-up: species or system nude mice; conditions: sodium salt of compound 1 0.25 or 0.75 mg/kg and/or adagrasib 100 mg/kg, orally once a day for 21 days
Method: as §8
The solvent A and the solvent C were administered at 10 ml/kg and 20 ml/kg, respectively, to a control group.
The tumor volumes of the mice were calculated according to the expression (4) given below. […] The ordinates of graphs (a) and (c) of FIG. 17 depict the tumor volumes (mm^3), and the abscissas thereof depict the number of days after cell transplantation.
The body weights of the mice were measured. […] The ordinates of graphs (b) and (d) of FIG. 17 depict the relative body weight change (%), and the abscissas thereof depict the number of days after cell transplantation.

[7] = test system: KRAS mutation-positive human cancer cell line NCI-H441; test: In vivo antitumor activity, NCI-H441-transplanted models (Example 5); set-up: species or system nude mice; conditions: sodium salt of compound 1 0.125 or 0.25 mg/kg orally once a day and/or TNO155 5 or 10 mg/kg orally twice a day, 13 days
Method: as §5, §6
Administration to the NCI-H441-transplanted models was performed as described below. The sodium salt of the compound 1 and the solvent D were administered at 0.125 mg/kg or 0.25 mg/kg and 10 ml/kg, respectively, to the single-agent administration group of the sodium salt of the compound 1. […]
as §4

[8] = test system: KRAS mutation-positive human cancer cell line OV56; test: In vivo antitumor activity, OV56-transplanted models (Example 4); set-up: species or system SCID mice; conditions: sodium salt of compound 1 0.25 mg/kg orally once a day for 10 days and/or bevacizumab 2.5 mg/kg intraperitoneal twice a week
Method: (§9) The cells of each line were subcutaneously transplanted at 5×10^6 per mouse to the mice. The mice were grouped (n=5) when a tumor volume reached 200 to 300 mm^3.
Administration to the OV56-transplanted models was performed as described below. […] The solvent A and physiological saline were administered at 20 ml/kg and 10 ml/kg, respectively, to a control group.

[9] = test system: KRAS mutation-positive human cancer cell line NCI-H441; test: In vivo antitumor activity, NCI-H441-transplanted models (Example 4); set-up: species or system nude mice; conditions: sodium salt of compound 1 0.0625 mg/kg orally once a day for 10 days and/or bevacizumab 2.5 mg/kg intraperitoneal twice a week
Method: as §9
Administration to the NCI-H441-transplanted models was performed as described below. […] The solvent A was administered at 20 ml/kg to a control group.

[10] = test system: phosphorylation of MEK and ERK and binding between KRAS and GTP within human cancer cells (NCI-H2122, NCI-H1373, NCI-H441, HPAC); test: In vitro RAS signal inhibitory activity evaluation (Western blot); conditions: for attenuation of inhibition of pMEK and pERK by lapse of time (Western blot, FIGS. 2 and 3): cells recovered after 4, 24 or 72 hours, single-agent or combined treatment; for inhibition of pMEK, pERK, DUSP4 and DUSP6 (Western blot, FIGS. 2 and 3): 3, 10 or 30 nmol/L compound 1, 1000 nmol/L TNO155, 100 nmol/L GDC-1971
Method: The human cancer cells used were KRAS mutation-positive human lung cancer cell lines NCI-H2122 (KRAS-G12C mutation), NCI-H1373 (KRAS-G12C mutation), NCI-H441 (KRAS-G12V mutation) and HPAC (KRAS-G12D) (all, ATCC). These cells were inoculated to a three-dimensional culture plate PrimeSurface (Sumitomo Bakelite Co., Ltd.) containing a medium. The plate inoculated with the cells was cultured at 37° C. in a 5% carbon dioxide incubator for 24 hours. […] The plate thus subjected to single-agent treatment or combined treatment was cultured at 37° C. in a 5% carbon dioxide incubator. After a lapse of 4 hours, 24 hours or 72 hours, the cells were recovered. The recovered cells were lysed with Cell Lysis Buffer (Cell Signaling Technology, Inc.) containing protease and phosphatase inhibitors (Thermo Fisher Scientific Inc.) to obtain a protein solution.
RAS-GTP, an activated form of RAS, was recovered from a portion of the obtained protein solution using Active Ras Pull-Down and Detection Kit (Thermo Fisher Scientific Inc.). SDS-PAGE was carried out using the obtained RAS-GTP concentrated solution and the protein solution, and migrated proteins were transferred to a PVDF membrane using Trans-Blot Turbo Transfer System (Bio-Rad Laboratories, Inc.). After blocking, the PVDF membrane was reacted with a primary antibody and a secondary antibody in this order. The chemiluminescence of protein bands was caused with Chemi-lumi One Super (Nacalai Tesque, Inc.). The bands were detected with ChemiDoc Touch Imaging System (Bio-Rad Laboratories, Inc.).
“KRAS-GTP” depicts KRAS bound with GTP. “pMEK” and “pERK” depict phosphorylated MEK and ERK, respectively.

SMILES | tumor volume compared with the control group (FIG. 20a) [1] | tumor volume compared with the control group (FIG. 19A) [2] | tumor volume compared with the control group (FIG. 17a) [3] | tumor volume compared with the control group (FIG. 19B) [4] | tumor volume compared with the control group (FIG. 20b) [5] | tumor volume compared with the control group (FIG. 17c) [6] | tumor volume compared with the control group (FIG. 19C) [7] | tumor volume compared with the control group (FIG. 18b) [8] | tumor volume compared with the control group (FIG. 18a) [9] | attenuation of inhibition of pMEK and pERK by lapse of time (Western blot, FIGS. 2 and 3) [10] | inhibition of pMEK, pERK, DUSP4 and DUSP6 (Western blot, FIGS. 2 and 3) ([10]; single-agent treatment) | inhibition of pMEK and pERK (Western blot, FIG. 1) ([10]; single-agent treatment, after 4 hours and 24 hours, 300 nmol/L compound 1)
CNS(=O)(=O)[N]([Na+])c1nccc(Cc2cc(C(N)=O)c(Nc3ccc(C4CC4)cc3F)c(F)c2F)c1F [sodium salt of the compound 1] | suppressed increase in tumor volume | suppressed increase in tumor volume | suppressed increase in tumor volume | suppressed increase in tumor volume | suppressed increase in tumor volume | suppressed increase in tumor volume | suppressed increase in tumor volume | suppressed increase in tumor volume | suppressed increase in tumor volume |  |  | 
N[C@@H]1c2ccccc2OC12CCN(c1cnc3c(N4CCCc5ncccc54)n[nH]c3n1)CC2 [GDC-1971, (R)-1′-(3-(3,4-dihydro-1,5-naphtyridin-1(2H)-yl)-1H-pyrazolo[3,4-b]pyridin-6-yl)-3H-spiro[benzofuran-2,4′-piperidin]-3-amine] |  |  |  |  |  |  |  |  |  | tended to be attenuated as time passed | inhibited pMEK, pERK, DUSP4 and DUSP6 | 
CNS(=O)(=O)Nc1nccc(Cc2cc(C(N)=O)c(Nc3ccc(C4CC4)cc3F)c(F)c2F)c1F [compound 1, 2-(4-cyclopropyl-2-fluoro-anilino)-3,4-difluoro-5-[[3-fluoro-2-(methylsulfamoylamino)-4-pyridyl]methyl]benzamide] |  |  |  |  |  |  |  |  |  | tended to be attenuated as time passed | inhibited pMEK, pERK, DUSP4 and DUSP6 | inhibited pMEK and pERK
C[C@@H]1OCC2(CCN(c3cnc(Sc4ccnc(N)c4Cl)c(N)n3)CC2)[C@@H]1N [TNO155, (3S,4S)-8-(6-amino-5-((2-amino-3-chloropyridin-4-yl)thio)pyrazin-2-yl)-3-methyl-2-oxa-8-azaspiro[4.5]decan-4-amine, reference compound] |  | suppressed increase in tumor volume |  | suppressed increase in tumor volume |  |  | suppressed increase in tumor volume |  |  | tended to be attenuated as time passed | inhibited pMEK, pERK, DUSP4 and DUSP6 | 
